Data from patent US9434735B2, “Amorphous form of 4-((4-(cyclopentyloxy)-5-(2-methylbenzo[d]oxazol-6-yl)-7h-pyrrolo[2,3-d]pyrimidin-2-yl)amino)-3-methoxy-n-methylbenzamide, compositions thereof and methods of their use” (Signal Pharmaceuticals, LLC, priority 2014, dated 2016).

Columns and labels:
Assay type in all cases: physicochemical
[1] = Stability study of the amorphous form (HPLC purity, XRPD); conditions: over three months; HPLC purity (FIG. 6), XRPD (FIG. 7)
Procedure: FIG. 6 depicts a stability study of the amorphous form based on its HPLC purity over 3 months. FIG. 7 depicts a stability study of the amorphous form based on its XRPD over 3 months. Solid samples were analyzed by XRPD. XRPD analysis was conducted on a PANalytical Empyrean or a Thermo ARL X'TRA X-ray powder diffractometer using Cu Kα radiation at 1.54 Å.

[2] = Solubility of spray-dried amorphous form in ethanol; conditions: amorphous form obtained by spray-drying
Procedure: An amorphous form of Compound 1 was obtained from a spray-drying process of Compound 1 as depicted in FIG. 5. The spray-drying process comprised: (1) mixing Compound 1 with methanol at 25° C. to yield a suspension; (2) heating to 121° C.; (3) spray-drying under the conditions in Table 1 or Table 2 to yield an amorphous solid form; and (4) collecting the resulting solids. Alternatively, the spray drying process comprised: (1) mixing Compound 1 with acetone to yield a solution; (2) spray-drying under the conditions in Table 3 to yield an amorphous solid form; and (3) collecting the resulting solids.

[3] = Dissolution of amorphous form in reconstitution formulations

## CNC(=O)c1ccc(Nc2nc(OC3CCCC3)c3c(-c4ccc5nc(C)oc5c4)c[nH]c3n2)c(OC)c1 [amorphous Compound 1, 4-((4-(cyclopentyloxy)-5-(2-methylbenzo[d]oxazol-6-yl)-7H-pyrrolo[2,3-d]pyrimidin-2-yl)amino)-3-methoxy-N-methylbenzamide]
[1]
  Stability (HPLC purity and XRPD): chemically and physically stable
[2]
  Solubility in ethanol: readily soluble
[3]; 17 mg amorphous Compound 1, 0.105 g EtOH, 0.656 g PEG-300, 0.239 g Saline
  Dissolution Time: 1 min
[3]; #1 4.6 mL EtOH added to 700 mg amorphous Compound 1, #2 26.3 mL (25.1:1.2) PEG-300:Ethanol, #3 10.3 mL Saline
  Dissolution Time: 1 min
[3]; #1 PEG-300/EtOH, #2 Saline
  Dissolution Time: 9 min
